{"source": "patent US7342032B2", "about": "(dated 2008)"}
{"units": {"melting point": "°C"}}
{"smiles": "O=C(Nc1ccccc1)c1nc(-c2ccc(Cl)cc2Cl)c(-c2ccc(Cl)cc2)s1", "melting point": "167 to 168"}
{"smiles": "O=C(NCCCC(F)(F)F)c1nc(-c2ccc(Cl)cc2Cl)c(-c2ccc(Cl)cc2)s1", "melting point": "99 to 101"}
{"smiles": "O=C(NN1CCCCCC1)c1nc(-c2ccc(Cl)cc2Cl)c(-c2ccc(Cl)cc2)s1", "melting point": "185 to 186"}
{"smiles": "O=C(NN1CCCCC1)c1nc(-c2ccc(Cl)cc2Cl)c(-c2ccc(Br)cc2)s1", "melting point": "171 to 173"}
